For the test, the target named is T1, GABA A receptor α5β3γ2 (Homo sapiens, UniProt P18507+P31644).
T1 construct: expressed in transfected cells; host or cells: HEK293 cells, transiently transfected; membranes prepared
In words: [3H]flumazenil competition binding, human GABA A α5β3γ2. The following applies: competition for [3H]flumazenil (0.5 nM) binding, HEK293 cells expressing human (transiently transfected) α5β3γ2; means of two determinations; read-out: Ki[nM] hα5. Here is the method:
Membrane Preparation and Binding Assay
The affinity of compounds at GABA A receptor subtypes was measured by competition for [3H]flumazenil (85 Ci/mmol; Roche) binding to HEK293 cells expressing rat (stably transfected) or human (transiently transfected) receptors of composition
Cell pellets were suspended in Krebs-tris buffer (4.8 mM KCl, 1.2 mM CaCl2, 1.2 mM MgCl2, 120 mM NaCl, 15 mM Tris; pH 7.5; binding assay buffer), homogenized by polytron for ca. 20 sec on ice and centrifuged for 60 min at 4° C. (50000 g; Sorvall, rotor: SM24=20000 rpm). The cell pellets were resuspended in Krebs-tris buffer and homogenized by polytron for ca. 15 sec on ice. Protein was measured (Bradford method, Bio-Rad) and aliquots of 1 mL were prepared and stored at −80° C.
Assays were incubated to equilibrium for 1 hour at 4° C. and harvested onto GF/C uni-filters (Packard) by filtration using a Packard harvester and washing with ice-cold wash buffer (50 mM Tris; pH 7.5). After drying, filter-retained radioactivity was detected by liquid scintillation counting. Ki values were calculated using Excel-Fit (Microsoft) and are the means of two determinations.

The Ki is the equilibrium dissociation constant of an inhibitor or competing ligand from its target. Take “2-(4,5-Difluoro-2-methoxy-phenyl)-5-(5-methyl-3-phenyl-isoxazol-4-yl)-[1,3,4]oxadiazole [Example 87]”: the Ki was 43.8 nM.

`COc1cc(NCC2CCCO2)c(F)cc1-c1nnc(-c2c(-c3ccccc3)noc2C)o1` (racemic) [Example 130, rac-{2-Fluoro-5-methoxy-4-[5-(5-methyl-3-phenyl-isoxazol-4-yl)-[1,3,4]oxadiazol-2-yl]-phenyl}-(tetrahydro-furan-2-ylmethyl)-amine]: the inhibition constant (Ki) stood at 10.5 nM.

For `Cc1onc(-c2ccccc2)c1-c1nnc(-c2ccccc2)o1` [Example 1, 2-(5-Methyl-3-phenyl-isoxazol-4-yl)-5-phenyl-[1,3,4]oxadiazole], the Ki came out at 400 nM.

Take `Cc1ccccc1-c1nnc(-c2c(-c3ccccc3)noc2C)o1` [Example 2, 2-(5-Methyl-3-phenyl-isoxazol-4-yl)-5-o-tolyl-[1,3,4]oxadiazole]: the Ki worked out at 234 nM.

In the case of `COc1cccc(-c2nnc(-c3c(-c4ccccc4)noc3C)o2)c1` [Example 3, 2-(3-Methoxy-phenyl)-5-(5-methyl-3-phenyl-isoxazol-4-yl)-[1,3,4]oxadiazole], the Ki was found to be 391 nM.

Regarding `COc1ccccc1-c1nnc(-c2c(-c3ccccc3)noc2C)o1` [Example 4, 2-(2-Methoxy-phenyl)-5-(5-methyl-3-phenyl-isoxazol-4-yl)-[1,3,4]oxadiazole], the Ki is 16.4 nM.

Consider `COc1ccc(-c2nnc(-c3c(-c4ccccc4)noc3C)o2)cc1` [Example 5, 2-(4-Methoxy-phenyl)-5-(5-methyl-3-phenyl-isoxazol-4-yl)-[1,3,4]oxadiazole], for which the inhibition constant Ki was 31.1 nM.

Consider `Cc1onc(-c2ccccc2)c1-c1nnc(-c2cccnc2Cl)o1` [Example 6, 2-Chloro-3-[5-(5-methyl-3-phenyl-isoxazol-4-yl)-[1,3,4]oxadiazol-2-yl]-pyridine], for which the Ki was 146 nM.

`Cc1onc(-c2ccccc2)c1-c1nnc(-c2cccc3cccnc23)o1` [Example 7, 8-[5-(5-Methyl-3-phenyl-isoxazol-4-yl)-[1,3,4]oxadiazol-2-yl]-quinoline]: the inhibition constant (Ki) was found to be 40.6 nM.

On to `CCOc1ccccc1-c1nnc(-c2c(-c3ccccc3)noc2C)o1` [Example 8, 2-(2-Ethoxy-phenyl)-5-(5-methyl-3-phenyl-isoxazol-4-yl)-[1,3,4]oxadiazole], for which the Ki came out at 58.2 nM.

For the compound `Cc1onc(-c2ccccc2)c1-c1nnc(-c2ccccn2)o1` [Example 9, 2-[5-(5-Methyl-3-phenyl-isoxazol-4-yl)-[1,3,4]oxadiazol-2-yl]-pyridine], the inhibition constant Ki was 286 nM.

In the case of `COc1ccc(-c2nnc(-c3c(-c4ccccc4)noc3C)o2)c(OC)c1` [Example 10, 2-(2,4-Dimethoxy-phenyl)-5-(5-methyl-3-phenyl-isoxazol-4-yl)-[1,3,4]oxadiazole], the Ki is 31.7 nM.

For the compound `COc1cc([N+](=O)[O-])ccc1-c1nnc(-c2c(-c3ccccc3)noc2C)o1` [Example 11, 2-(2-Methoxy-4-nitro-phenyl)-5-(5-methyl-3-phenyl-isoxazol-4-yl)-[1,3,4]oxadiazole], the inhibition constant Ki is 171 nM.

For `Cc1onc(-c2ccccc2)c1-c1nnc(-c2ccccc2N)o1` [Example 12, 2-[5-(5-Methyl-3-phenyl-isoxazol-4-yl)-[1,3,4]oxadiazol-2-yl]-phenylamine], the Ki turned out to be 106 nM.

For `COc1cc(N)ccc1-c1nnc(-c2c(-c3ccccc3)noc2C)o1` [Example 13, 3-Methoxy-4-[5-(5-methyl-3-phenyl-isoxazol-4-yl)-[1,3,4]oxadiazol-2-yl]-phenylamine], the Ki came out at 7.5 nM.

Consider `COc1cc(C)ccc1-c1nnc(-c2c(-c3ccccc3)noc2C)o1` [Example 14, 2-(2-Methoxy-4-methyl-phenyl)-5-(5-methyl-3-phenyl-isoxazol-4-yl)-[1,3,4]oxadiazole], for which the Ki worked out at 31 nM.

As for `COc1ccc(OC)c(-c2nnc(-c3c(-c4ccccc4)noc3C)o2)c1` [Example 15, 2-(2,5-Dimethoxy-phenyl)-5-(5-methyl-3-phenyl-isoxazol-4-yl)-[1,3,4]oxadiazole], the Ki stood at 14.8 nM.

For `COc1cc(NC(=O)C2CC2)ccc1-c1nnc(-c2c(-c3ccccc3)noc2C)o1` [Example 16, Cyclopropanecarboxylic acid {3-methoxy-4-[5-(5-methyl-3-phenyl-isoxazol-4-yl)-[1,3,4]oxadiazol-2-yl]-phenyl}-amide], the Ki stood at 7.7 nM.

Turning to `COc1cc(N(C)C(=O)C2CC2)ccc1-c1nnc(-c2c(-c3ccccc3)noc2C)o1` [Example 17, Cyclopropanecarboxylic acid {3-methoxy-4-[5-(5-methyl-3-phenyl-isoxazol-4-yl)-[1,3,4]oxadiazol-2-yl]-phenyl}-methyl-amide], the Ki stood at 48.8 nM.

For `COc1cc(NCC2CC2)ccc1-c1nnc(-c2c(-c3ccccc3)noc2CCC2CC2)o1` [Example 18, (4-{5-[5-(2-Cyclopropyl-ethyl)-3-phenyl-isoxazol-4-yl]-[1,3,4]oxadiazol-2-yl}-3-methoxy-phenyl)-cyclopropylmethyl-amine], the Ki amounted to 124 nM.

Take `COc1cc(NCC2CC2)ccc1-c1nnc(-c2c(-c3ccccc3)noc2C)o1` [Example 19, Cyclopropylmethyl-{3-methoxy-4-[5-(5-methyl-3-phenyl-isoxazol-4-yl)-[1,3,4]oxadiazol-2-yl]-phenyl}-amine]: the Ki was 11.6 nM.

`COc1cc(N)ccc1-c1nnc(-c2c(-c3ccccc3)noc2CCC2CC2)o1` [Example 20, 4-{5-[5-(2-Cyclopropyl-ethyl)-3-phenyl-isoxazol-4-yl]-[1,3,4]oxadiazol-2-yl}-3-methoxy-phenylamine]: the Ki worked out at 20.5 nM.

`COc1cc(N(S(C)(=O)=O)S(C)(=O)=O)ccc1-c1nnc(-c2c(-c3ccccc3)noc2C)o1` [Example 21, N-{3-Methoxy-4-[5-(5-methyl-3-phenyl-isoxazol-4-yl)-[1,3,4]oxadiazol-2-yl]-phenyl}-bis-methanesulfonyl-amine]: the Ki is 85 nM.

On to `COc1cc(NC(=O)c2ccsc2)ccc1-c1nnc(-c2c(-c3ccccc3)noc2C)o1` [Example 23, Thiophene-3-carboxylic acid-{3-methoxy-4-[5-(5-methyl-3-phenyl-isoxazol-4-yl)-[1,3,4]oxadiazol-2-yl]-phenyl}-amide], for which the inhibitory constant (Ki) stood at 18.3 nM.

`COc1cc(F)ccc1-c1nnc(-c2c(-c3ccccc3)noc2C)o1` [Example 24, 2-(4-Fluoro-2-methoxy-phenyl)-5-(5-methyl-3-phenyl-isoxazol-4-yl)-[1,3,4]oxadiazole]: the inhibitory constant (Ki) came out at 39.6 nM.

Consider `Cc1onc(-c2ccccc2)c1-c1nnc(-c2ccc3nn[nH]c3c2)o1` [Example 25, 6-[5-(5-Methyl-3-phenyl-isoxazol-4-yl)-[1,3,4]oxadiazol-2-yl]-1H-benzotriazole], for which the Ki amounted to 30.9 nM.

For `COc1cc(N2CCSCC2)ccc1-c1nnc(-c2c(-c3ccccc3)noc2C)o1` [Example 26, 4-{3-Methoxy-4-[5-(5-methyl-3-phenyl-isoxazol-4-yl)-[1,3,4]oxadiazol-2-yl]-phenyl}-thiomorpholine], the Ki turned out to be 10.2 nM.

Consider `Cc1onc(-c2ccccc2)c1-c1nnc(-c2ccc3[nH]cnc3c2)o1` [Example 27, 5-[5-(5-Methyl-3-phenyl-isoxazol-4-yl)-[1,3,4]oxadiazol-2-yl]-1H-benzoimidazole], for which the inhibition constant (Ki) came to 22.1 nM.

For `COc1cc(N2CCS(=O)(=O)CC2)ccc1-c1nnc(-c2c(-c3ccccc3)noc2C)o1` [Example 28, 4-{3-Methoxy-4-[5-(5-methyl-3-phenyl-isoxazol-4-yl)-[1,3,4]oxadiazol-2-yl]-phenyl}-thiomorpholine 1,1-dioxide], the inhibition constant (Ki) amounted to 3.2 nM.

As to `COc1cc(N2CCC(O)CC2)ccc1-c1nnc(-c2c(-c3ccccc3)noc2C)o1` [Example 29, 1-{3-Methoxy-4-[5-(5-methyl-3-phenyl-isoxazol-4-yl)-[1,3,4]oxadiazol-2-yl]-phenyl}-piperidin-4-ol], the inhibition constant (Ki) worked out at 6 nM.

Turning to `Cc1onc(-c2ccccc2)c1-c1nnc(-c2ccc(S(C)(=O)=O)cc2)o1` [Example 30, 2-(4-Methanesulfonyl-phenyl)-5-(5-methyl-3-phenyl-isoxazol-4-yl)-[1,3,4]oxadiazole], the inhibitory constant (Ki) came out at 226 nM.

For `Cc1onc(-c2ccccc2)c1-c1nnc(-c2cccc(S(C)(=O)=O)c2)o1` [Example 31, 2-(3-Methanesulfonyl-phenyl)-5-(5-methyl-3-phenyl-isoxazol-4-yl)-[1,3,4]oxadiazole], the Ki amounted to 199 nM.

For the compound `Cc1onc(-c2ccccc2)c1-c1nnc(-c2ccc([N+](=O)[O-])cc2)o1` [Example 32, 5-(5-Methyl-3-phenyl-isoxazol-4-yl)-2-(4-nitro-phenyl)-[1,3,4]oxadiazole], the Ki was 240 nM.

Regarding `COc1cc(-n2ccnc2)ccc1-c1nnc(-c2c(-c3ccccc3)noc2C)o1` [Example 33, 2-(4-Imidazol-1-yl-2-methoxy-phenyl)-5-(5-methyl-3-phenyl-isoxazol-4-yl)-[1,3,4]oxadiazole], the inhibition constant (Ki) came to 7.5 nM.

Turning to `Cc1onc(-c2ccccc2)c1-c1nnc(-c2ccc3[nH]c(=O)[nH]c3c2)o1` [Example 34, 5-[5-(5-Methyl-3-phenyl-isoxazol-4-yl)-[1,3,4]oxadiazol-2-yl]-1,3-dihydro-benzoimidazol-2-one], the Ki came out at 7.9 nM.

The values above are taken from patent US7956074B2, “Aryl-isoxazolo-4-yl-oxadiazole derivatives” (Hoffman-La Roche Inc., priority 2005, dated 2011).
